Laboratory results reported in patent publication US20060193925A1, “Side effect-relieving agents and/or hypoglycemic effect enhancers for thiazolidine compounds” (KANEBO, LIMITED, priority 2001, published 2006).
Where a name gives a salt, the structure may show the parent alone.

Tests used:
Format in all cases: in vivo
[1] = Test Example 1: body weight gain inhibiting effect; conditions: KKA^y mice, 8/group, in powder diet, pioglitazone 5 mg/kg/day, extract powder of Preparation Example 1 1.5 g/kg/day
Text: (§1) Divided into groups of 8 mice, 7-week old KKA^y mice which were genetically obese diabetic animals were used. Group (a) was fed only on a powder diet (CE-2, produced by Clea Japan, Inc.) for 5 weeks, and Group (b), Group (c) and Group (d) were given pioglitazone, the extract powder of Preparation Example 1, and pioglitazone and the extract powder of Preparation Example 1, respectively, for 5 weeks by preparing a powder diet so that the daily dose of each therein was of the values shown in Table 1. During the period of the test, body weights were measured, and the formulation of the diet were adjusted in accordance with an increase or decrease in body weight to keep the doses per day in Group (b) and Group (d) constant.
The results were evaluated by comparing the body weight gain observed in each of Groups (a), (b), (c) and (d) (Student's t-test).

[2] = Test Example 3: body weight gain inhibiting effect; conditions: KKA^y mice, 7/group, in powder diet, pioglitazone 5 mg/kg/day, extract powder of Preparation Example 2 6.4 g/kg/day
Method: (§2) Divided into groups of 7 mice, 7-week old KKA^y mice which were genetically obese diabetic animals were used, and the tests were carried out in the same manner as in Test Example 1, except Group (c) and (d) were given the extract powder of Preparation Example 2, and pioglitazone and the extract powder of Preparation Example 2, respectively, for 4 weeks by preparing the powder diet so that the daily dose each therein was of the values shown in Table 4.
The results were evaluated in the same manner as in Test Example 1.

[3] = system: KKA^y mice; assay: Test Example 4: hypoglycemic effect (blood glucose level in serum); conditions: in powder diet, pioglitazone 5 mg/kg/day, extract powder of Preparation Example 2 6.4 g/kg/day
Method: as §2
The test was carried out in the same manner as in Test Example 3. The blood was collected 1 week and 4 weeks after commencement of the administration, and the serum was separated to measure the blood glucose levels.
The results were evaluated in the same manner as in Test Example 2.

[4] = system: KKA^y mice; assay: Test Example 2: hypoglycemic effect (blood glucose level in serum); conditions: in powder diet, pioglitazone 5 mg/kg/day, extract powder of Preparation Example 1 1.5 g/kg/day
Text: as §1
Tests were carried out in the same manner as in Test Example 1. The blood was collected 1 week and 5 weeks after commencement of the administration, and the serum was separated to measure the blood glucose levels.

Compound: CCc1ccc(CCOc2ccc(CC3SC(=O)NC3=O)cc2)nc1 (centres unmarked) [Pioglitazone, pioglitazone hydrochloride]
- Body weight gain, 1 week after administration ([1]; 1 week): 5.2 ± 0.2 g
- Body weight gain, 5 weeks after administration ([1]; 5 weeks): 11.8 ± 0.6 g
- Body weight gain, 1 week after administration ([2]; 1 week): 5.3 ± 0.4 g
- Body weight gain, 4 weeks after administration ([2]; 4 weeks): 10.7 ± 0.5 g
- Blood glucose level, 1 week after the administration ([3]; 1 week): 320 ± 30 mg/dL
- Blood glucose level, 4 weeks after the administration ([3]; 4 weeks): 587 ± 24 NS mg/dl
- Blood glucose level, 1 week after the administration ([4]; 1 week): 404 ± 28 mg/dL
- Blood glucose level, 5 weeks after the administration ([4]; 5 weeks): 527 ± 18 NS mg/dl
